Data reported in patent US20100204114A1, “USE OF A GALANIN PEPTIDE AS A THERAPEUTIC AGENT” (priority 2007, published 2010).
Where no end group is shown, it is not given here.

Legend:
[1] = tested on: Primary Human endothelial cells (HUVEC); test: Endothelial cell migration assay; format: cell-based; details: 10 micrograms per ml, 22 hours
[2] = tested on: HCMV strain AD169; test: HCMV plaque formation assay in MRC-5 cells; details: for inhibition of HCMV plaque formation as compared to the virus control: 10 micrograms per ml, 7-10 days
[3] = tested on: spleen cells of Ovalbumin-immunized Balb/c mice; test: Th1/Th2 cytokine profiling assay (Ovalbumin-restimulated spleen cells, CBA kit); format: cell-based, mouse; details: 10 micrograms per ml; Ovalbumin restimulation; 72 hours
Excerpt: The Balb/c mice (originated in 1923, it is a popular strain and is used in many different research disciplines. […] On day 50, spleens of the mice were harvested (3 weeks after last boost with Ovalbumin). […] This kit can be used to measure Interleukin-2 (IL-2), Interleukin-4 (IL-4), Interleukin-5 (IL-5), Interferon-γ (IFN-γ), and Tumor Necrosis Factor-α (TNF-α) protein levels in a single sample. The kit performance has been optimized for analysis of physiologically relevant concentrations ([…] levels) of specific cytokine proteins in tissue culture supernatants and serum samples.

[4] = tested on: hepatitis B virus (HBV) ayw strain in HepG2-2.2.15 cells; test: HBV experimental assay system, secreted HBV DNA by TaqMan PCR; format: cell-based; details: 10 micrograms per ml, six days
Excerpt: HepG2-2.2.15 is a stable cell line containing the hepatitis B virus (HBV) ayw strain genome (ATCC Cat. No. CRL-11997). Antiviral compounds blocking any late step of viral replication such as transcription, translation, pregenome encapsidation, reverse transcription, particle assembly and release can be identified and characterized using this cell line. In this assay, an active compound will reduce the production of secreted HBV from cells, measured by utilizing real time quantitative PCR (TaqMan) assay to directly and accurately measure HBV DNA copies.
HepG2-2.2.15 cells were plated in 96-well microtiter plates. After 16-24 hours the confluent monolayer of HepG2-2.2.15 cells was washed and the medium was replaced with complete medium containing test peptides—10 micrograms per ml—in duplicate. […] Six days following the initial administration of the peptides, the cell culture supernatants was collected, treated with pronase and DNAse and then used in a real-time quantitative TaqMan PCR assay. The PCR-amplified HBV DNA was detected in real-time by monitoring increases in fluorescence signals that result from the exonucleolytic degradation of a quenched fluorescence probe molecule that hybridizes to the amplified HBV DNA. […] Antiviral activity was calculated from the reduction in HBV DNA levels (% virus control). […]

[5] = tested on: HUVEC; test: Endothelial tube formation assay; format: cell-based, human; details: 10 micrograms per ml, 20 hours
[6] = tested on: HIV-1IIIB; test: HIV-1 antiviral assay in CEM-SS cells (MTS readout); format: cell-based

Molecule | inhibition of the migration of human endothelial cells [1] | inhibition of HCMV plaque formation as compared to the virus control [2] | IFNγ spleen cells; TH1 response (% of control) [3] | IL-2 spleen cells (% of control) [3] | IL-4 spleen cells; TH2 response (% of control) [3] | IL-5 spleen cells; TH2 response (% of control) [3] | TNF-a spleen cells; TH1 response (% of control) [3] | inhibition of HBV replication as compared to the virus control infection [4] | inhibition of the tube formation of endothelial cells [5] | antiviral activity of positive control compounds (HIV-1) [6] | antiviral activity of positive control compound (HCMV) ([2]; positive control)
Ile-Tyr-Leu-Gly-Gly-Pro-Phe-Ser-Pro-Asn-Val-Leu-OH (IYLGGPFSPNVL-OH) [peptide 2] | did not inhibit | did not inhibit | 102.8 % of control | 150.7 % of control | 182.0 % of control | 73.5 % of control | 114.1 % of control | 34.1% | 29% |  | 
CC(C)(C)NC(=O)[C@@H]1CN(Cc2cccnc2)CCN1C[C@@H](O)C[C@@H](Cc1ccccc1)C(=O)N[C@H]1c2ccccc2C[C@H]1O [indinavir] |  |  |  |  |  |  |  |  |  | expected levels of antiviral activity | 
Cc1cn([C@H]2C[C@H](N=[N+]=[N-])[C@@H](CO)O2)c(=O)[nH]c1=O [AZT] |  |  |  |  |  |  |  |  |  | expected levels of antiviral activity | 
Nc1nc(O)c2ncn(COC(CO)CO)c2n1 [Ganciclovir, reference compound] |  |  |  |  |  |  |  |  |  |  | expected levels of antiviral activity
Gly-Trp-Thr-Leu-Asn-Ser-Ala-Gly-Tyr-Leu-Leu-Gly-Pro-His-Ala-Val-Gly-Asn-His-Arg-Ser-Phe-Ser-Asp-Lys-Asn-Gly-Leu-Thr-Ser-OH [peptide 1] | 29% | did not inhibit | 144.1 % of control | 149.6 % of control | 115.3 % of control | 78.8 % of control | 118.8 % of control | no effect | 11% |  | 
